Laboratory results: paper PMC11995724, “Antibiotic target discovery by integrated phenotypic and activity-based profiling of electrophilic fragments” (Cell chemical biology, 2025)
Counter-ions that a name gives are not always drawn.

Assay: in vitro
Conditions: human, hek293t cells

SMILES	viability at 48 h, 25 µM
CCN(CC)C(=O)c1cccc(NC(=O)CCl)c1 [5-I03, 3-(2-chloroacetamido)-N,N-diethylbenzamide]	0.175%
O=C(CCl)NC1CCN(Cc2cscn2)CC1 [7-H04, 2-chloro-N-{1-[(1,3-thiazol-4-yl)methyl]piperidin-4-yl}acetamide hydrochloride]	0.789%
CC(Cl)C(=O)N(C)C(C)c1ccccc1N1CCCS1(=O)=O (centres unmarked) [6-D05, 2-chloro-N-{1-[2-(1,1-dioxo-1lambda6,2-thiazolidin-2-yl)phenyl]ethyl}-N-methylpropanamide]	104%
COC(=O)C(C(=O)CCl)=C1Nc2ccccc2N1 [10-G12, methyl 4-chloro-2-(2,3-dihydro-1H-1,3-benzodiazol-2-ylidene)-3-oxobutanoate]	48.7%
C=CC(=O)Nc1cc(C)c(CC)cc1OC [3-O06, N-(4-ethyl-2-methoxy-5-methylphenyl)prop-2-enamide]	82%
N#CC(=Cc1cn2cc(Cl)ccc2n1)C(=O)NC1CCCC1 [9-P15, 3-{6-chloroimidazo[1,2-a]pyridin-2-yl}-2-cyano-N-cyclopentylprop-2-enamide]	120%
COc1cccc(NC(=O)C(C)Cl)c1 (centres unmarked) [6-I03, 2-chloro-N-(3-methoxyphenyl)propanamide]	105%
CC(Cl)C(=O)NC(C)(C)c1cccc(Cl)c1F (centres unmarked) [7-E15, 2-chloro-N-[2-(3-chloro-2-fluorophenyl)propan-2-yl]propanamide]	91.2%
O=C(CN1CCN(C(=O)CCl)CC1)Nc1cccc(F)c1 [5-P19, 2-[4-(2-chloroacetyl)piperazin-1-yl]-N-(3-fluorophenyl)acetamide hydrochloride]	1.84%
C=CC(=O)N1CCC(c2nc(C(=O)O)cs2)CC1 [1-O21, 2-[1-(prop-2-enoyl)piperidin-4-yl]-1,3-thiazole-4-carboxylic acid]	96.9%
C=CC(=O)N(Cc1cc2cccc(OC)c2o1)[C@@H]1C[C@H]2CC[C@@H]1O2 (racemic) [1-J13, rac-N-[(7-methoxy-1-benzofuran-2-yl)methyl]-N-[(1R,2S,4S)-7-oxabicyclo[2.2.1]heptan-2-yl]prop-2-enamide]	172%
Cc1c(C(=O)N2CCN(C(=O)C(C)Cl)CC2)sc2ccccc12 (centres unmarked) [7-H09, 2-chloro-1-[4-(3-methyl-1-benzothiophene-2-carbonyl)piperazin-1-yl]propan-1-one]	88.8%
O=C(CCl)NC1CCN(c2ccncc2)CC1 [5-P09, 2-chloro-N-[1-(pyridin-4-yl)piperidin-4-yl]acetamide hydrochloride]	48.1%
C=CC(=O)NC(c1ccc(F)cc1)c1ccn(C)n1 (centres unmarked) [3-J20, N-[(4-fluorophenyl)(1-methyl-1H-pyrazol-3-yl)methyl]prop-2-enamide]	99.9%
C=CC(=O)N(Cc1cn(C2CCC2)nn1)c1ccc(F)cc1 [1-G09, N-[(1-cyclobutyl-1H-1,2,3-triazol-4-yl)methyl]-N-(4-fluorophenyl)prop-2-enamide]	37.6%
O=C(CCl)Nc1ccc(C(F)(F)F)cc1[N+](=O)[O-] [4-N08, 2-chloro-N-[2-nitro-4-(trifluoromethyl)phenyl]acetamide]	87.1%
C=CC(=O)NCc1cn(C)c2ccccc12 [1-G21, N-[(1-methyl-1H-indol-3-yl)methyl]prop-2-enamide]	107%
O=C(CCl)NC1CCS(=O)(=O)c2ccc(F)cc21 (centres unmarked) [7-H06, 2-chloro-N-(6-fluoro-1,1-dioxo-3,4-dihydro-2H-1lambda6-benzothiopyran-4-yl)acetamide]	1.04%
C=CCNC(=O)C(C#N)=Cc1ccc(OC)c(O)c1 [8-E21, 2-cyano-3-(3-hydroxy-4-methoxyphenyl)-N-(prop-2-en-1-yl)prop-2-enamide]	75.7%
C=CC(=O)N(C)CC(=O)NCc1c(O)nnc(C)c1C [2-I20, N-({[(3-hydroxy-5,6-dimethylpyridazin-4-yl)methyl]carbamoyl}methyl)-N-methylprop-2-enamide]	91.6%
N#CC(=Cc1ccc2[nH]c(=O)[nH]c2c1)C(=O)NC1CCCC1 [9-E03, 2-cyano-N-cyclopentyl-3-(2-oxo-2,3-dihydro-1H-1,3-benzodiazol-5-yl)prop-2-enamide]	121%
C=CC(=O)NCc1coc(-c2cccs2)n1 [1-C07, N-{[2-(thiophen-2-yl)-1,3-oxazol-4-yl]methyl}prop-2-enamide]	70.1%
N#CC(=Cc1cccc(O)c1)C(=O)Nc1ccc(SC(F)F)cc1 [9-C19, 2-cyano-N-{4-[(difluoromethyl)sulfanyl]phenyl}-3-(3-hydroxyphenyl)prop-2-enamide]	99.7%
Cc1c(C=C(C#N)C(=O)NCC2(c3ccccc3)CC2)cc(C#N)n1C [8-E22, 2-cyano-3-(5-cyano-1,2-dimethyl-1H-pyrrol-3-yl)-N-[(1-phenylcyclopropyl)methyl]prop-2-enamide]	79.4%
Cc1ccccc1C(C)NC(=O)C(C#N)=Cc1ccco1 (centres unmarked) [9-E06, 2-cyano-3-(furan-2-yl)-N-[1-(2-methylphenyl)ethyl]prop-2-enamide]	107%

SMILES	viability at 48 h, 25 µM
C=CC(=O)Nc1ccccc1C(=O)N(C)C(C)C [3-H17, N-methyl-2-(prop-2-enamido)-N-(propan-2-yl)benzamide]	66.9%
Cc1cc(C(=O)CCl)c(C)n1C(c1ccccc1)c1ccccc1 [10-I08, 2-chloro-1-[1-(diphenylmethyl)-2,5-dimethyl-1H-pyrrol-3-yl]ethan-1-one]	1.32%
CCOC(=O)C1=C(C)NC(=O)N(C(=O)CCl)C1c1ccccc1 (centres unmarked) [5-I05, ethyl 3-(2-chloroacetyl)-6-methyl-2-oxo-4-phenyl-1,2,3,4-tetrahydropyrimidine-5-carboxylate]	44.7%
O=C(CCl)Cc1ccc(F)c(F)c1 [10-O17, 1-chloro-3-(3,4-difluorophenyl)propan-2-one]	28%
O=C(CCl)Cc1ccc(F)cc1 [10-G15, 1-chloro-3-(4-fluorophenyl)propan-2-one]	73.7%
O=C(CCl)NC1CCC(c2nc(-c3ccccc3)n[nH]2)CC1 (centres unmarked) [6-G19, 2-chloro-N-[4-(3-phenyl-1H-1,2,4-triazol-5-yl)cyclohexyl]acetamide]	39.3%
CC1CN(c2cccc(CN(C)C(=O)C(C)Cl)c2)S(=O)(=O)C1 (centres unmarked) [6-L18, 2-chloro-N-methyl-N-{[3-(4-methyl-1,1-dioxo-1lambda6,2-thiazolidin-2-yl)phenyl]methyl}propanamide]	112%
C=CC(=O)N1CCC(C(=O)N2CCCC(NC(=O)C(C)(C)C)C2)CC1 (centres unmarked) [2-F05, 2,2-dimethyl-N-{1-[1-(prop-2-enoyl)piperidine-4-carbonyl]piperidin-3-yl}propanamide]	75.6%
C=CC(=O)N1CCC(C(=O)NC2(Cc3ccccc3)CCCC2)CC1 [3-H12, N-(1-benzylcyclopentyl)-1-(prop-2-enoyl)piperidine-4-carboxamide]	83.4%
N#CC(=Cc1ccc([N+](=O)[O-])cc1)C(=O)Nc1ccc(Cl)cc1 [8-O11, N-(4-chlorophenyl)-2-cyano-3-(4-nitrophenyl)prop-2-enamide]	82.6%
C=CC(=O)N1CCOC(Cn2nc(C)nc2C)C1 (centres unmarked) [1-B09, 1-{2-[(3,5-dimethyl-1H-1,2,4-triazol-1-yl)methyl]morpholin-4-yl}prop-2-en-1-one]	161%
CC(C)N1C(=O)C[C@H](NC(=O)CCl)[C@H]1c1ccc(Cl)c(F)c1 (racemic) [5-I11, rac-2-chloro-N-[(2R,3S)-2-(4-chloro-3-fluorophenyl)-5-oxo-1-(propan-2-yl)pyrrolidin-3-yl]acetamide]	0.807%
C=CC(=O)N1CCC(C(=O)NCc2ncccc2OC)CC1 [3-H05, N-[(3-methoxypyridin-2-yl)methyl]-1-(prop-2-enoyl)piperidine-4-carboxamide]	73.5%
C=CC(=O)NCCc1ccccc1OC [2-O03, N-[2-(2-methoxyphenyl)ethyl]prop-2-enamide]	105%
CCn1cc(S(=O)(=O)N2CCSSCC2)cn1 [10-N19, 5-[(1-ethyl-1H-pyrazol-4-yl)sulfonyl]-1,2,5-dithiazepane]	109%
N#CC(=Cc1c2ccccc2c(Cl)c2ccccc12)C(N)=O [8-N12, 3-(10-chloroanthracen-9-yl)-2-cyanoprop-2-enamide]	69.3%
C=CC(=O)N1CCn2c(cnc2C(F)(F)F)C1 [3-B16, 1-[3-(trifluoromethyl)-5H,6H,7H,8H-imidazo[1,5-a]pyrazin-7-yl]prop-2-en-1-one]	81.8%
C=CC(=O)NCc1ccccc1-n1nc(C)cc1C [3-P19, N-{[2-(3,5-dimethyl-1H-pyrazol-1-yl)phenyl]methyl}prop-2-enamide]	59.1%
C=CC(=O)N1CCC([C@@H](C)O)CC1 [3-E12, 1-{4-[(1R)-1-hydroxyethyl]piperidin-1-yl}prop-2-en-1-one]	104%
C=CC(=O)Nc1nc2c(s1)-c1cc(OC)ccc1CC2 [1-J21, N-{8-methoxy-4H,5H-naphtho[2,1-d][1,3]thiazol-2-yl}prop-2-enamide]	118%
C=CC(=O)NCC(C)Cn1ccc(C)n1 (centres unmarked) [2-D03, N-[2-methyl-3-(3-methyl-1H-pyrazol-1-yl)propyl]prop-2-enamide]	99.9%
C=CC(=O)NCC(OC)C1CCOC1 (centres unmarked) [3-L19, N-[2-methoxy-2-(oxolan-3-yl)ethyl]prop-2-enamide]	85.8%
O=C(CCl)Nc1nc2c(s1)CCCC2 [5-G15, 2-chloro-N-(4,5,6,7-tetrahydro-1,3-benzothiazol-2-yl)acetamide]	1.2%
O=C(CCl)Nc1cc(C(F)(F)F)ccc1Cl [4-J04, 2-chloro-N-[2-chloro-5-(trifluoromethyl)phenyl]acetamide]	1.3%
O=C(CCl)N1CCN(S(=O)(=O)c2cccc([N+](=O)[O-])c2)CC1 [4-C19, 2-chloro-1-[4-(3-nitrobenzenesulfonyl)piperazin-1-yl]ethan-1-one]	1.45%
